This note sets out measurements from patent US7482340B2, “Pyridine derivatives useful for inhibiting sodium/calcium exchange system” (Orion Corporation, priority 2003, dated 2009).

The assay relates to guinea-pig papillary muscles. Kind of assay: Inhibition of ouabain-induced arrhythmias (aftercontractions) in guinea-pig papillary muscles. To be noted: 10 μM concentration; guinea-pig papillary muscle paced at 1 Hz, 37° C. How it is done: The effects of the compounds of the invention were tested on ouabain-induced arrhythmias in guinea-pig papillary muscles.
Guinea-pig papillary muscles were mounted into horizontal muscle cuvette. A hook connected to force transducer was attached to another end of the muscle. Muscle preparations were electrically paced at 1 Hz with field stimulation via platinum electrodes. Modified Tyrode solution was used for superfusion of muscle preparations. The composition of the Tyrode solution was the following (mM): NaCl 135, MgCl2×6H2O 1, KCl 5, CaCl2×2H2O 2, NaHCO3 15, Na2HPO4×2H2O 1, and glucose 10. The Tyrode solution was gassed with carbogen (95% O2, 5% CO2) to set pH at 7.4. Experiments were carried out at 37° C. Acquisition and analysis of twitch tensions with Action Potential and Force Measurement System (ACFO v1.0, Fision Ltd, Finland).
Ouabain by blocking of sodium-potassium ATPase increases intracellular sodium which is changed for calcium via NCX. Increased intracellular calcium is leading to overload of sarcoplasmic reticulum (SR) and spontaneous calcium release from SR inducing delayed […] (DADs). Equivalence for DADs in force signal is aftercontractions (ACs) which are seen as spontaneous twitches after the pacing controlled twitch.
The antiarrhythmic effects of the title compounds of Examples 13, 33, 14a and 14b were examined.

Each structure is given as a SMILES string.

On to `NCC(=O)Nc1ccc(Oc2ccc3c(c2)CCC(c2ccccc2)O3)nc1` (stereo not shown) [Example 33, 2-Amino-N-[6-(2-phenylchroman-6-yloxy)pyridin-3-yl]acetamide], for which the “inhibition of the emergency of ouabain-induced second aftercontraction” value is given as “inhibit completely”.
